Read-outs that look alike come from different tables or passages of the source.
Key:
kinase enzymes [1] = molecular target: T1, kinase enzymes (Homo sapiens, UniProt P42345); test: Enzyme binding assay (KINOMEscan, DiscoveRx), further kinases of Table A; conditions: MTOR_h
T1 construct: purchased DiscoveRx Corporation, San Diego (contract service, KINOMEscan)
Summary of the method: (§1)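 Affinity for each kinase was determined by KINOMEscan profiling.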

kinase enzymes [2] = molecular target: T2, kinase enzymes (Homo sapiens, UniProt P48736); test: as above; conditions: PIK3Cγ_h
T2 construct: purchased DiscoveRx Corporation, San Diego (contract service, KINOMEscan)
T2 sequence (P48736 whole entry): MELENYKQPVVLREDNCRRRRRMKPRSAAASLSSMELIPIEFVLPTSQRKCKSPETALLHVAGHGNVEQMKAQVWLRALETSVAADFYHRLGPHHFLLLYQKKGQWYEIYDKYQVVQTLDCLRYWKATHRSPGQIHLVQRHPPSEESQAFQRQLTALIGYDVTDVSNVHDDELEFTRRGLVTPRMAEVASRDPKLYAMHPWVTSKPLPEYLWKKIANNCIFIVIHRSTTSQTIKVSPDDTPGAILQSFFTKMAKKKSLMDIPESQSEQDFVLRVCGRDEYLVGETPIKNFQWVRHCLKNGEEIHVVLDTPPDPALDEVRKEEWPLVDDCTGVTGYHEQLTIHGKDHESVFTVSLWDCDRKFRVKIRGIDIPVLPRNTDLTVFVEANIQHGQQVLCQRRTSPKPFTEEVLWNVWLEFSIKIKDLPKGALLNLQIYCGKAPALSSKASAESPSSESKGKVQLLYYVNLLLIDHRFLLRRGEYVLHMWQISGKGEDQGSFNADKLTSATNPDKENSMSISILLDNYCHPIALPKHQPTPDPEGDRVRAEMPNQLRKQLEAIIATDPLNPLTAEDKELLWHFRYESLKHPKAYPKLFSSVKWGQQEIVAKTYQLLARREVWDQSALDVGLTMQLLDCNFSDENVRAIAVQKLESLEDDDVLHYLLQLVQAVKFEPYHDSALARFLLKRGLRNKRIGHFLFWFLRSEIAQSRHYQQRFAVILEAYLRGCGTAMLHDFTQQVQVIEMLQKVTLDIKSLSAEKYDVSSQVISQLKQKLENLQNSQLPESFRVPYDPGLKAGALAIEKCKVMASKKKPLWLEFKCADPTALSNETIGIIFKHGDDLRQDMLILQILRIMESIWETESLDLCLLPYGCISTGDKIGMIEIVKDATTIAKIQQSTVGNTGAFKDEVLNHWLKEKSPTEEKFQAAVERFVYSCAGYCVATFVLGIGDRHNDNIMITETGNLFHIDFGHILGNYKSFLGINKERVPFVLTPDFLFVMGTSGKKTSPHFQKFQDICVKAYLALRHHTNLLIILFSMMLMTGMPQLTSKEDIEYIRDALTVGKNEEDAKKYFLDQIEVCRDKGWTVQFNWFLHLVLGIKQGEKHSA
Summary of the method: as §1

kinase enzymes [3] = molecular target: T3, kinase enzymes (Homo sapiens, UniProt P42336); test: as above; conditions: PIK3Cα_h
T3 construct: purchased DiscoveRx Corporation, San Diego (contract service, KINOMEscan)
T3 sequence (P42336 whole entry): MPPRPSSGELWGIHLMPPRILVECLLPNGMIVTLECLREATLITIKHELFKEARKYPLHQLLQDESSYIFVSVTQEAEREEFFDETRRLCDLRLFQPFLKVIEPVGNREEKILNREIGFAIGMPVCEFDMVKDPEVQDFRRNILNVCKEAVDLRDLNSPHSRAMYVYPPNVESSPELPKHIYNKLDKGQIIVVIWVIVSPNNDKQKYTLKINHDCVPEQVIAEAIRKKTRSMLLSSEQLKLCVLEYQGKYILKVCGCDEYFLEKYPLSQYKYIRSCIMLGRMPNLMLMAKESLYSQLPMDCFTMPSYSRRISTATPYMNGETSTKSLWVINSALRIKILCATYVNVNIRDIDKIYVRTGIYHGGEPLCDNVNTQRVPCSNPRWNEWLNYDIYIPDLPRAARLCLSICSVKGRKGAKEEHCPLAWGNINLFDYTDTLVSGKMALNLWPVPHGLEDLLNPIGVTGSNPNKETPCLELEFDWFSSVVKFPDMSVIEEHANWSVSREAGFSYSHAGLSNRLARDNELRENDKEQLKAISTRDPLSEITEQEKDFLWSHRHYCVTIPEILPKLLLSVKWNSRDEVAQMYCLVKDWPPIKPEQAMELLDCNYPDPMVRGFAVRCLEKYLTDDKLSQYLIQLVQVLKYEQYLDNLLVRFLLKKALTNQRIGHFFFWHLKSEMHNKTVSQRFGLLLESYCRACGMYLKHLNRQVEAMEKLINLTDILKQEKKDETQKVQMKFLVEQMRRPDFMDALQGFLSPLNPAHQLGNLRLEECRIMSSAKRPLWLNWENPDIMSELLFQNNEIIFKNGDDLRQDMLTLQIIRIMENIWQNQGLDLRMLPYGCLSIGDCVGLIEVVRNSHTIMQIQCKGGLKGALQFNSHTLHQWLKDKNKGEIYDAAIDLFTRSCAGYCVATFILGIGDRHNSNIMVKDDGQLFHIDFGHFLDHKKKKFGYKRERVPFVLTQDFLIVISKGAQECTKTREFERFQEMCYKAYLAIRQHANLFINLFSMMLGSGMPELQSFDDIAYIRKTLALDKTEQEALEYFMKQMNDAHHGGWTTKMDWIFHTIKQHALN
Summary of the method: as §1

PI3Kβ = molecular target: T4, PI3Kβ (Homo sapiens, UniProt P42338); test: Enzyme binding assay (KINOMEscan, DiscoveRx); conditions: PIK3Cβ_h, read-out: Kd PIK3Cβ_h
T4 construct: purchased DiscoveRx Corporation, San Diego (contract service, KINOMEscan)
T4 sequence (P42338 whole entry): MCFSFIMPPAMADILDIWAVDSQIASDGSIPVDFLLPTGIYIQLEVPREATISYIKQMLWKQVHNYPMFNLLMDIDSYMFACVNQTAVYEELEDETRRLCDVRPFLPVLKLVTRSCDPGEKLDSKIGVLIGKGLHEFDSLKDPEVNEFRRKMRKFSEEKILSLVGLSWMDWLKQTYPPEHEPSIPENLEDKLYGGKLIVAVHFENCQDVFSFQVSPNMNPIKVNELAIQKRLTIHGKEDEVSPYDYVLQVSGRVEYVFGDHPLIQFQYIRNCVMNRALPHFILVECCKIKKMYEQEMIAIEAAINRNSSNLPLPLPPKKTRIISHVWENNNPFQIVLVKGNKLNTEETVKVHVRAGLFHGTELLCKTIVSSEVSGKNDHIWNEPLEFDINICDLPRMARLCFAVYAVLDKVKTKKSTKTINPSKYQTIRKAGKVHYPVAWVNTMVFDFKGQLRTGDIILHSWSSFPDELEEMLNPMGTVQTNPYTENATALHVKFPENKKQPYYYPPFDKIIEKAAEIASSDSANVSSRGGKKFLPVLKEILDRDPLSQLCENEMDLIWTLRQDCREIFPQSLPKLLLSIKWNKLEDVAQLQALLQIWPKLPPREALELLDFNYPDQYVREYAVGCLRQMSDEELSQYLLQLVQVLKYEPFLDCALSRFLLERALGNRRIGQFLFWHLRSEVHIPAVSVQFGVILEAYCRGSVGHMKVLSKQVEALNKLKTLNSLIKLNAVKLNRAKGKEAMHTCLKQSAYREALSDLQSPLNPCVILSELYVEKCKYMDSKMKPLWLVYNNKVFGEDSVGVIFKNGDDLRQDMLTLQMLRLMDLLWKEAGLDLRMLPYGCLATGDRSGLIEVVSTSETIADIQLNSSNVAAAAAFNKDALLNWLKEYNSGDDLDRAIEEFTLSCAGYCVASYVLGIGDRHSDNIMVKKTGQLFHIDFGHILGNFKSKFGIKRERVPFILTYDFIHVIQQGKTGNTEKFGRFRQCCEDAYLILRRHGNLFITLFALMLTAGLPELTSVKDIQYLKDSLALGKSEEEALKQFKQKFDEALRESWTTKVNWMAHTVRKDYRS
Summary of the method: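 Values are Kd in nM, the binding constant of each inhibitor for the kinase, obtained from a KINOMEscan enzyme binding assay.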

[4] = test system: Akt phosphorylated at Ser473 in PC-3 cells; test: Cellular assay: phosphorylation of Akt at Ser473 in PC-3 cells (MSD ELISA); assay type: cell-based; conditions: PC-3 cells, 60 min compound incubation, MSD ELISA, read-out: IC50 pAkt_S473
Summary of the method: (§2)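 Electrochemiluminescent sandwich ELISA read-out: phospho-specific capture (Ser473 or Thr308), Sulfo-tag anti-total Akt detection, signal proportional to phospho-Akt. Cells treated 60 min at 37° C with compound, DMSO 0.3%. IC50 fitted from five concentrations.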

PI3Kδ = molecular target: T5, PI3Kδ (Homo sapiens, UniProt O00329); test: Enzyme binding assay (KINOMEscan, DiscoveRx); conditions: PIK3Cδ_h
T5 construct: purchased DiscoveRx Corporation, San Diego (contract service, KINOMEscan)
T5 sequence (O00329 1-1044): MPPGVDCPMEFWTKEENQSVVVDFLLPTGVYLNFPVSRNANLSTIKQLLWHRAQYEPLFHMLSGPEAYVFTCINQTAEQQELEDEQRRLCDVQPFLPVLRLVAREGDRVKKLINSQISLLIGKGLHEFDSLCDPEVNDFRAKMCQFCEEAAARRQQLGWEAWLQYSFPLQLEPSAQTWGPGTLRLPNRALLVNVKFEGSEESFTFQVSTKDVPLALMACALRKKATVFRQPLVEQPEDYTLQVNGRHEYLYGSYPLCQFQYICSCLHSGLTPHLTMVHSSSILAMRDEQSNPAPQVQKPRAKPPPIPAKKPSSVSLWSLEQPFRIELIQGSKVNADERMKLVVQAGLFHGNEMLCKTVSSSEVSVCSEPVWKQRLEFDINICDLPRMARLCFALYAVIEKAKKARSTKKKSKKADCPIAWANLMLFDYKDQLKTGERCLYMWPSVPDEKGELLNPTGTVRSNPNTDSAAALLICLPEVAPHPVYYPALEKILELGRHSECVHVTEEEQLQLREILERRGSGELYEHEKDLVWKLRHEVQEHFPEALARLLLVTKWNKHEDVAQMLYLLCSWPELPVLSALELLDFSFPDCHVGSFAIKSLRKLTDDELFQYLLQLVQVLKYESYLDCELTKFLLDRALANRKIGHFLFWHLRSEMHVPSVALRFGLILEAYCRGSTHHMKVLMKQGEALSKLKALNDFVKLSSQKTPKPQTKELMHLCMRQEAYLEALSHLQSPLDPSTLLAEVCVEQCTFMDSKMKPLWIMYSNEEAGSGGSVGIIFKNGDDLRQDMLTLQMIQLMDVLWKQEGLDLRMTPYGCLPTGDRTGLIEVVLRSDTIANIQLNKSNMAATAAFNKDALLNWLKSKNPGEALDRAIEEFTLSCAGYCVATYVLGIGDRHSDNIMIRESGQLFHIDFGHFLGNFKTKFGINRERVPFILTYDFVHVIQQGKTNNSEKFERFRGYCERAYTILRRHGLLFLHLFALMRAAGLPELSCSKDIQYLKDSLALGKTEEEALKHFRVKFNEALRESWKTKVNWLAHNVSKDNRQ
Summary of the method: as §1

[5] = test system: Akt phosphorylated at Thr308 in PC-3 cells; test: Cellular assay: phosphorylation of Akt at Thr308 in PC-3 cells (MSD ELISA); assay type: cell-based; conditions: PC-3 cells, 60 min compound incubation, MSD ELISA, read-out: IC50 pAkt_Thr308
Summary of the method: as §2

Compound | Kd (kinase enzymes [1]) [nM] | Kd (kinase enzymes [2]) [nM] | Kd (kinase enzymes [3]) [nM] | Kd (PI3Kβ) [nM] | IC50 [4] [nM] | Kd (PI3Kδ) [nM] | IC50 [5] [nM] | IC50 ([4]; Homo sapiens, PC-3, 1 h) [nM] | IC50 ([5]; Homo sapiens, PC-3, 1 h) [nM]
CC(Oc1cccc(F)c1)c1cc(C(=O)N(C)C)cc2ncc(N3CCOCC3)nc12 (single isomer, unassigned) [Compound 339b] | 6460 | 2190 | 759 | 316 | > 513 | 1950 | > 513 |  | 
CC(Nc1cc(F)c(F)c(F)c1)c1cc(C(=O)N2CCCN(C(C)C)CC2)cc2ncc(N3CCOCC3)nc12 (single isomer, unassigned) [Compound 388b] | > 30200 | 2400 | 2190 | 3 |  | 200 |  | 38 | 19
CN(C)C(=O)c1cc(N2CCC2c2ccc(F)cc2)c2nc(N3CCOCC3)cnc2c1 (single isomer, unassigned) [Compound 397b] | > 30200 | 12300 | 1860 | 25 | ~513 | 871 | > 513 |  | 
CC(Oc1cc(F)c(F)c(F)c1)c1cc(C(=O)N(C)C2CCNC2)cc2ncc(N3CCOCC3)nc12 (single isomer, unassigned) [Compound 404a] | > 30200 | > 30200 | > 30200 | 1510 |  | > 30200 |  | > 513 | > 513
CC(Oc1cc(F)c(F)c(F)c1)c1cc(C(=O)N(C)C2CCNC2)cc2ncc(N3CCOCC3)nc12 (single isomer, unassigned) [Compound 404b] | > 30200 | 16600 | 5250 | 1 | 398 | 1070 | 295 |  | 
CN[C@H]1CCN(C(=O)c2cc(C(C)Oc3cc(F)c(F)c(F)c3)c3nc(N4CCOCC4)cnc3c2)C1 (single isomer, unassigned) [Compound 405a] | > 30200 | > 30200 | > 30200 | 501 | > 513 | 7410 | > 513 |  | 
CNCCNC(=O)c1cc(C(C)Nc2cc(F)cc(F)c2)c2nc(N3CCOCC3)cnc2c1 (single isomer, unassigned) [Compound 406b] | > 30200 | 3800 | 7410 | 141 | > 513 | 3470 | > 513 |  | 
C[C@@H]1CN(c2cnc3cc(C(=O)N(C)C)cc(C4CCCN4c4cc(F)cc(F)c4)c3n2)CCO1 (some centres unmarked) [Compound 3] | 17800 | 229 | 47 | 1 | 3 | 20 | ~3 |  | 
C[C@@H]1CN(c2cnc3cc(C(=O)N(C)C)cc(C4CCCN4c4cc(F)cc(F)c4)c3n2)CCO1 (some centres unmarked) [Compound 4] | > 30200 | > 30200 | 23400 | 1700 |  | 22900 |  | > 513 | > 513

Other lines, results leading:

Kd (kinase enzymes [1]) [nM] | Kd (kinase enzymes [2]) [nM] | Kd (kinase enzymes [3]) [nM] | Kd (PI3Kβ) [nM] | IC50 [4] [nM] | Kd (PI3Kδ) [nM] | IC50 [5] [nM] | IC50 ([4]; Homo sapiens, PC-3, 1 h) [nM] | IC50 ([5]; Homo sapiens, PC-3, 1 h) [nM] | Compound
> 30200 | 14100 | 8130 | 166 | > 513 | 3800 | ~513 |  |  | CNCCNC(=O)c1cc(C(C)Oc2ccc(F)c(F)c2)c2nc(N3CCOCC3)cnc2c1 (single isomer, unassigned) [Compound 344b]
> 30200 | > 30200 | > 30200 | 724 | > 513 | 22900 | > 513 |  |  | CNCCOCCN(C)C(=O)c1cc(C(C)Nc2ccc(F)c(F)c2)c2nc(N3CCOCC3)cnc2c1 (single isomer, unassigned) [Compound 345b]
> 30200 | 25700 | 3890 | 2 | 85 | 355 | 60 |  |  | CC(Nc1ccc(F)c(F)c1)c1cc(C(=O)N2CCN3CCC[C@@H]3C2)cc2ncc(N3CCOCC3)nc12 (single isomer, unassigned) [Compound 347b]
> 30200 | > 30200 | > 30200 | 1320 | > 513 | 25700 | > 513 |  |  | CC(Nc1ccc(F)c(F)c1)c1cc(C(=O)NCC(C)(C)O)cc2ncc(N3CCOCC3)nc12 (single isomer, unassigned) [Compound 348b]
> 30200 | 25700 | 4680 | 14 | 479 | 2750 | 302 |  |  | CC(Nc1ccc(F)c(F)c1)c1cc(C(=O)N(C)CCN(C)C)cc2ncc(N3CCOCC3)nc12 (single isomer, unassigned) [Compound 349b]
> 30200 | 6920 | 2460 | 1 | 35 | 204 | 26 |  |  | CC(C)NCCNC(=O)c1cc(C(C)Nc2ccc(F)c(F)c2)c2nc(N3CCOCC3)cnc2c1 (single isomer, unassigned) [Compound 364a]
> 30200 | 8130 | 7080 | 372 | > 513 | 7760 | > 513 |  |  | CC(C)NCCNC(=O)c1cc(C(C)Nc2ccc(F)c(F)c2)c2nc(N3CCOCC3)cnc2c1 (single isomer, unassigned) [Compound 364b]
> 30200 | 10200 | 5250 | 1 |  | 204 |  | 52 | 35 | CN[C@H]1CCN(C(=O)c2cc(C(C)Nc3ccc(F)c(F)c3)c3nc(N4CCOCC4)cnc3c2)C1 (single isomer, unassigned) [Compound 365a]
29500 | 23400 | 4070 | 63 |  | 1150 |  | > 513 | > 513 | Cc1c(F)cccc1CN(C)c1cc(C(=O)N2CCNC(C(F)(F)F)C2)cc2ncc(N3CCOCC3)nc12 (single isomer, unassigned) [Compound 367a]
28200 | > 30200 | 2460 | 35 | > 513 | 427 | > 513 |  |  | Cc1c(F)cccc1CN(C)c1cc(C(=O)N2CCNC(C(F)(F)F)C2)cc2ncc(N3CCOCC3)nc12 (single isomer, unassigned) [Compound 367b]
25100 | > 30200 | 7240 | 20 |  | 525 | 251 | ~363 |  | CC(Oc1ccc(F)c(F)c1)c1cc(C(=O)N2CCN3CCC[C@H]3C2)cc2ncc(N3CCOCC3)nc12 (single isomer, unassigned) [Compound 369a]
18600 | 8910 | 3800 | 5 |  | 1200 |  | > 513 | > 513 | CNCCNC(=O)c1cc(C(C)Oc2ccc(Cl)c(F)c2)c2nc(N3CCOCC3)cnc2c1 (single isomer, unassigned) [Compound 380b]
20900 | 4680 | 5010 | 1 | 44 | 219 | 33 |  |  | CN[C@H]1CCN(C(=O)c2cc(C(C)Oc3cc(F)c(F)c(F)c3)c3nc(N4CCOCC4)cnc3c2)C1 (single isomer, unassigned) [Compound 405b]
28200 | 313 | 34 | 0.3 | 2 | 15 | 3 |  |  | CN(C)C(=O)c1cc([C@H]2CCCN2c2cc(F)cc(F)c2)c2nc(N3CCOCC3)cnc2c1 [Compound 1]

From patent publication US10526316B2, “Quinoxaline and pyridopyrazine derivatives as PI3Kβ inhibitors” (Janssen Pharmaceutica NV, priority 2015, dated 2020)
